Assays:
human skin fibroblasts [1] = assay: Collagen production promoting effect of AMP2Na on cultured human skin fibroblasts (PICP EIA), Test Example 1; type: cell-based; conditions: 2 days culture, culture supernatant, FIG. 1
Description: Evaluation of the collagen production promoting effect of adenosine monophosphate disodium on cultured human skin fibroblasts.
Primary-cultured human skin fibroblasts (manufactured by Kurabo Industries, Ltd.) were cultured in a 10 cm petri dish, and the cultured cells were collected in the subconfluent state and then freeze-preserved. Using the freeze-preserved cells, an evaluation of the collagen production promoting effect of adenosine monophosphate disodium (hereinafter, referred to as “AMP2Na) was conducted. In the following, the proportion of AMP2Na was based on the concentration of AMP.
1) The freeze-preserved cells were dissolved in an LSGS (Low Serum Growth Supplement)-containing liquid culture medium 106S (manufactured by Kurabo Industries, Ltd.), and the cell concentration and medium amount were adjusted to 30000 cells/100 μl. 100 μl of thus obtained cell-containing liquid was poured into each well of a test plate. […]
(§1) 4) Two days after culture initiation, the culture supernatant of each well was collected, and the amount of Procollagen type I C-peptide (PICP) was determined based on the amount of collagen in the culture supernatant using a Procollagen type I C-peptide (PIP) EIA Kit (manufactured by Takara Bio Inc.).

human skin fibroblasts [2] = assay: Collagen production promoting effect of combined use of AMP2Na and UMP2Na on cultured human skin fibroblasts (PICP EIA), Test Example 2; type: cell-based
Description: 1) The freeze-preserved cells were dissolved in an LSGS (Low Serum Growth Supplement)-containing liquid culture medium 106S (manufactured by Kurabo Industries, Ltd.), and the cell concentration and medium amount were adjusted to 30000 cells/100 μl. 100 μl of thus obtained cell-containing liquid was poured into each well of a test plate.
2) AMP2Na solutions of various concentrations were prepared using a sterilized phosphate buffer solution, and then filtered through a filter, followed by sterilization. The resultants were added to a liquid medium 106S (manufactured by Kurabo Industries, Ltd.) to prepare AMP2Na-containing culture media of various concentrations (0 to 1×10^−5 w/v %).
3) Twenty four hours after injecting cells into the plate wells, it was confirmed that human fibroblasts adhered to the wells, and the medium was removed from each well. Subsequently, an AMP2Na-containing culture medium (200 μl) of one of various concentrations prepared in 2) above was added to each well. The mixtures were cultured at 37° C. under 5% CO2 for two days.
as §1
Evaluation of the collagen production promoting effect of the combined use of adenosine monophosphate disodium and uridine monophosphate disodium on cultured human skin fibroblasts.
The evaluation of the collagen production promoting effect of cultured human skin fibroblasts was conducted following the same procedure of Test Example 1 above except for using such media. In Table 1, the proportions of AMP2Na and UMP2Na were based on the concentration of AMP and UMP, respectively.

Compound | PICP amount relative to cells cultured in the AMP-free medium (human skin fibroblasts [1]; AMP2Na 1×10^−5 w/v % in medium) | PICP amount as compared with cells cultured in an AMP-free medium (human skin fibroblasts [1]; AMP2Na 1×10^−8 to 1×10^−5 w/v % in medium) | action of promoting collagen production (PICP concentration) (human skin fibroblasts [2]; AMP2Na alone 1×10^−6 w/v % (test medium 2) vs test medium 4, FIG. 2) | action of promoting collagen production (PICP concentration) (human skin fibroblasts [2]; UMP2Na alone 1×10^−8 w/v % (test medium 3) vs test medium 4, FIG. 2) | potentiation of the action of promoting collagen production of AMP2Na (PICP concentration) (human skin fibroblasts [2]; combined use: AMP2Na 1×10^−6 w/v % + UMP2Na 1×10^−8 w/v % (test medium 1), FIG. 2)
Nc1ncnc2c1ncn2[C@@H]1O[C@H](COP(=O)([O-])[O-])[C@@H](O)[C@H]1O.[Na+].[Na+] [AMP2Na, adenosine monophosphate disodium] | about 1.4 times | increased | has an action of promoting collagen production |  | 
O=c1ccn([C@@H]2O[C@H](COP(=O)([O-])[O-])[C@@H](O)[C@H]2O)c(=O)[nH]1.[Na+].[Na+] [UMP2Na, uridine monophosphate disodium] |  |  |  | no action of promoting collagen production | sharply potentiates
